Reference: ChEMBL document CHEMBL5223101, “Evolution of 3-(4-hydroxyphenyl)indoline-2-one as a scaffold for potent and selective anticancer activity” (RSC Med Chem, 2022)

Assay: Anticancer activity against human ECC-1 cells assessed as cell death at 1 uM by tryphan blue staining based cell counter analysis relative to control

For `Cc1cccc2c1NC(=O)C2(c1ccc(O)cc1)c1ccc(O)cc1`, the cell death at 1 µM was < 20%.
